Consider 2 compounds from US9402846B2, “Combination of inhibitor of B-Raf and inhibitor of AKT in the treatment of cancer” (Novartis AG, priority 2009, dated 2016).

Holding throughout (type): cell-based
Assay [1] concerns 12R5-1. Put plainly: Cell growth inhibition assay (Cell Titer Glo, 3 days). The note with it: Homo sapiens; 12R5-1, melanoma, Compound A resistant clone; BRAF_V600E, KRAS WT; mean ± std; read-out: IC50 Single Agent. How it is done: (§1) Human colon tumor lines, Colo205, DLD1, HCC2998, HCT15, HCT8, HT29, KM-12, LS1034, LS174T, NCI-H508, RKO, SW1417, SW1463, SW480, SW837 and T84, and human melanoma line A375 were from ATCC. A375PF11 was derived from A375, 12R5-1, 12R5-3, 12R8-1, 12R8-3, 16R5-2, 16R6-3 and 16R6-4 are single cell clones derived from mixed populations of A375PF11 cells that were selected to grow in Compound A to concentrations of 1200 and 1600 nM. All lines were cultured in RPMI 1640 medium containing 10% fetal bovine serum (FBS).
(§2) All cells were cultured for a minimum of 72 hours prior to cell plating. Cells were assayed in a 96-well tissue culture plate (NUNC 136102) of RPMI medium containing 10% FBS for all cells at 1,000 cells per well. Approximately 24 hours after plating, cells were exposed to ten, three-fold serial dilutions of compound or the combination of the two agents at a constant molar to molar ratio of 1:10 Compound A to Compound B in RPMI media containing 10% FBS. Cells were incubated in the presence of compounds for 3 days. ATP levels were determined by adding Cell Titer Glo® (Promega) according to the manufacturer's protocol. Briefly, Cell Titer Glo® was added each plate, incubated for 30 minutes then luminescent signal was read on the SpectraMax L plate reader with a 0.5 sec integration time.
(§3) Inhibition of cell growth was estimated after treatment with compound or combination of compounds for three days and comparing the signal to cells treated with vehicle (DMSO). Cell growth was calculated relative to vehicle (DMSO) treated control wells.
(§4) Combination effects on potency were evaluated using Combination Index (CI) which was calculated with the back-interpolated IC50 values and the mutually non-exclusive equation derived by Chou and Talalay (1): CI=Da/IC50(a)+Db/IC50(b)+(Da×Db)/(IC50(a)×IC50(b))
(§5) In general, a CI value <0.9, between 0.9 and 1.1, or >1.1 indicates synergy, additivity and antagonism, respectively. In general, the smaller the CI number, the greater is the strength of synergy.
(§6) The combination effects on the response scale were quantified by Excess Over Highest Single Agent (EOHSA) based on the concept of nonlinear blending as described in detail by Peterson and Novick (2007) and Peterson (2010) [(2;3) [Peterson and Novick, 2007; Peterson, 2010]. EOHSA values are defined as increases in improvement (here, in ‘percentage points’ (ppts) difference) produced by the combination over the best single agent at its component dose level for the combination. For single agent and combination treatments, cells were exposed to compounds at a fixed-dose-ratio, and dose response curves were fit to the experimental data and analyzed using regression models. At specified total dose levels of IC50 along the dose response curve, the dose combination (corresponding to IC50) was determined for making EOHSA statistical inferences.
On the technique in general: Cellular ATP, detected with luciferase, serves as a proxy for viable cell number.

Assay [2] has as its system 12R8-1. The assay is described as above. The note with it: Homo sapiens; 12R8-1, melanoma, Compound A resistant clone; BRAF_V600E, KRAS WT; mean ± std; read-out: IC50 Single Agent. As for the experimental part: as §1, §2, §3, §4, §5, §6
The subject of assay [3] is 16R5-2. Described as above. Conditions: Homo sapiens; 16R5-2, melanoma, Compound A resistant clone; BRAF_V600E, KRAS WT; mean ± std; read-out: IC50 Single Agent. How it is done:
as §1, §2, §3, §4, §5, §6

In assay [4] the test system is HT29. The assay is described as above. Conditions: Homo sapiens, HT-29; HT29, colon; BRAF V600E, KRAS WT, PIK3CA P449T; mean ± std; read-out: IC50 Single Agent. How it is done: as §1, §2, §3, §4, §5, §6
Assay [5] has as its system KM-12. The description is as above. The note with it: Homo sapiens, KM12; KM-12, colon; BRAF WT, KRAS WT, PIK3CA WT; mean ± std; read-out: IC50 Single Agent. As for the experimental part:
as §1, §2, §3, §4, §5, §6

Assay [6] relates to SW1417. The description is as above. The note with it: Homo sapiens; SW1417, colon; BRAF V600E, KRAS WT, PIK3CA WT; mean ± std; read-out: IC50 Single Agent. As for the experimental part: as §1, §2, §3, §4, §5, §6
Assay [7] deals with LS174T. Described as above. Conditions: Homo sapiens, colon, BRAF WT, KRAS G12D, PIK3CA H1047R, mean ± std, read-out: IC50 Single Agent. As for the experimental part:
as §1, §2
(§7) Inhibition of cell growth was estimated after treatment with compound or combination of compounds for three days and comparing the signal to cells treated with vehicle (DMSO). Cell growth was calculated relative to vehicle (DMSO) treated control wells. […]

For assay [8], the system named is NCI-H508. The description is as above. Conditions: Homo sapiens, NCl-H508, colon, BRAF G596R, KRAS WT, PIK3CA E545K, mean ± std, read-out: IC50 Single Agent. As for the experimental part: as §1, §2, §7
The subject of assay [9] is SW1463. The description is as above. Conditions: Homo sapiens; SW1463, colon; BRAF WT, KRAS G12C, PIK3CA WT; mean ± std; read-out: IC50 Single Agent. How it is done: as §1, §2, §7
Assay [10] concerns SW480. The assay is described as above. The note with it: Homo sapiens; SW480, colon; BRAF WT, KRAS G12C, PIK3CA WT; mean ± std; read-out: IC50 Single Agent. As for the experimental part: as §1, §2, §7
For assay [11], the system named is four colon cell lines with BRAF V600E mutation. Put plainly: Cell growth inhibition assay (Cell Titer Glo, 3 days), summary over lines. The note with it: Homo sapiens; span over the four colon cell lines with BRAF V600E mutation; single agent. As for the experimental part: Human colon tumor lines, Colo205, DLD1, HCC2998, HCT15, HCT8, HT29, KM-12, LS1034, LS174T, NCI-H508, RKO, SW1417, SW1463, SW480, SW837 and T84, and human melanoma line A375 were from ATCC.
All cells were cultured for a minimum of 72 hours prior to cell plating. […] Cells were incubated in the presence of compounds for 3 days. ATP levels were determined by adding Cell Titer Glo® (Promega) according to the manufacturer's protocol. Briefly, Cell Titer Glo® was added each plate, incubated for 30 minutes then luminescent signal was read on the SpectraMax L plate reader with a 0.5 sec integration time.
as §3, §4, §5
EOHSA values are defined as increases in improvement (here, in ‘percentage points’ (ppts) difference) produced by the combination over the best single agent at its component dose level for the combination. For single agent and combination treatments, cells were exposed to compounds at a fixed-dose-ratio, and dose response curves were fit to the experimental data and analyzed using regression models. At specified total dose levels of IC50 along the dose response curve, the dose combination (corresponding to IC50) was determined for making EOHSA statistical inferences.

SMILES strings stand for the structures. A value given as a limit tells only on which side of the number the result lay.

Turning to `CC(C)(C)c1nc(-c2cccc(NS(=O)(=O)c3c(F)cccc3F)c2F)c(-c2ccnc(N)n2)s1` [Compound A, N-{3-[5-(2-Amino-4-pyrimidinyl)-2-(1,1-dimethylethyl)-1,3-thiazol-4-yl]-2-fluorophenyl}-2,6-difluorobenzenesulfonamide], the IC50 is more than 10 µM in [1]; more than 10 µM in assay [2]; more than 10 µM in assay [3]; 0.028 ± 0.007 µM in [4]; more than 10 µM in assay [5]; 0.101 ± 0.031 µM in assay [6]. The half-inhibitory concentration (IC50) in assay [7] was more than 10 µM; in [8] it was more than 10 µM; in [9], more than 10 µM; in assay [10], more than 10 µM; in assay [11], 0.018 to 3.32 µM.

With `Cn1ncc(Cl)c1-c1cc(C(=O)N[C@H](CN)Cc2ccc(F)c(F)c2)oc1Cl` [Compound B, N-{(1S)-2-amino-1-[(3,4-difluorophenyl)methyl]ethyl}-5-chloro-4-(4-chloro-1-methyl-1H-pyrazol-5-yl)-2-furancarboxamide], the IC50 was more than 10 µM in assay [1]; more than 10 µM in assay [2]; 7.05 ± 1.33 µM in assay [3]; 0.503 ± 0.073 µM in [4]; 1.41 ± 0.961 µM in assay [5]; 2.59 ± 1.76 µM in [6]. Moreover, the IC50 in assay [7] is 3.75 ± 0.945 µM; in assay [8], 0.234 ± 0.247 µM; in [9] it was 5.23 ± 7.4 µM; in [10], 5.62 ± 1.85 µM; in assay [11], 0.29 to 2.59 µM.

A word on the IC50: it is the concentration needed to halve the response being measured.
